“Also recorded” adds a separate entry of the source. Marks after values point to notes of the source that are not given here.
Key:
Assay type in all cases: cell-based
[1] = system: A549 human lung cancer cells; assay: ROS assay, dihydroethidium (DHE) fluorescence by flow cytometry, with or without antimycin A; details: for ROS levels (DHE fluorescence) with antimycin A (AM): AM as ROS inducer, p<0.05
Experimental: A549 human lung cancer cells were seeded in 6-well plates at 200,000 cells/well for 40 hours, then the medium was removed, and treatments were added. Ubiquinol (coQ10) was dispersed in RPMI medium at three different concentrations (100, 50, and 10 μM) and added to wells (n=3 each), then the volume of each well was completed to 4 ml with medium. Ubiquinol-γ-cyclodextrin (1:10 molar ratio) complex dispersed in RPMI at three different concentrations (equivalent to 100, 50, and 10 μM of ubiquinol) and added to wells (n=3/each) and the volume of the each well was completed to 4 ml with medium._γ-cyclodextrin was added in amounts equivalent to those associated with 100, 50, and 10 μM of the complex to each well (n=3/each) and the volume of the each well was completed to 4 ml with medium._Six wells were left untreated._After 24 h, media were removed, and wells were washed with 5 mM sodium pyruvate in PBS, trypsinized, then collected in 15 ml tubes by centrifugation. Cells were washed with 5 mM sodium pyruvate in PBS, then re-suspended in 1 ml of the same solution._The reagents were added as described in FIG. 14, then incubated at 40 min._Cells were re-suspended and transferred to round-bottom tubes, and analyzed by flow Cytometry.

[2] = system: human donor corneal endothelial cells; assay: Mitochondrial respiration assay (Seahorse XFe24 extracellular flux analyzer) of donor corneal endothelium after storage in supplemented Optisol GS; details: for ATP Production, Mean (SD) / Maximal Respiration, Mean (SD) / Non-mitochondrial Respiration, Median [IQR] / Proton Leak, Mean (SD) / Spare Respiratory Capacity, Mean (SD) / Basal, Mean (SD): OCR per cell (pmole/min/cell)
Experimental: Human corneal tissue pairs were obtained by Iowa Lions Eye Bank (ILEB) from nondiabetic donors 60-75 years old and stored in Optisol GS (Bausch+Lomb, Irvine, Calif.) at 4° C. following procurement in accordance with Eye Bank Association of America and ILEB policies and procedures. For 5 days prior to testing, but within 9 days of procurement, one stored tissue from a corneal pair was treated with 10 μM CoQ10, while the mate tissue was treated with diluent only as a control. Descemet membrane and endothelial cell punches were collected and mounted onto the bottom of a Seahorse assay plate (cells facing upward). Mitochondrial respiration was assayed by measuring oxygen consumption using the Seahorse XFe24 Extracellular Flux Analyzer (Agilent Technologies, Santa Clara, Calif.) over 120 minutes (9-minute intervals). Punches were labeled with a nuclear counterstain (DAPI) and remaining tissues were mounted onto slides and labeled with 488A-Annexin V, Ethidium Homodimer III, and Hoechst 33342 (Apoptotic, Necrotic, and Healthy Cells Quantification Kit; Biotium, Fremont, Calif.) to assay cell health. Nuclei were counted in each punch to normalize respirometry data. Immunohistochemistry densitometry was measured using ImageJ software.
Human donor whole globe eye pairs were obtained by Iowa Lions Eye Bank (ILEB) and the anterior portion of the eyes were removed. For 14 days, one cornea was stored from a corneal pair treated with 1 mM ascorbate-2-phosphate, while the mate tissue was treated with diluent only as a control. Descemet membrane and endothelial cell punches were collected and mounted onto the bottom of a Seahorse assay plate (cells facing upward). Mitochondrial respiration was assayed by measuring oxygen consumption using the Seahorse XFe24 Extracellular Flux Analyzer (Agilent Technologies, Santa Clara, Calif.) over 120 minutes (9-minute intervals). Punches were labeled with a nuclear counterstain (DAPI) and nuclei were counted in each punch to normalize respirometry data. […]
Tissue preparation and extracellular flux assays for mitochondrial respiration were performed as described in Greiner et al. (2015). In brief, after pre-stripping the EDM, 3 mm diameter EDM punches were mounted in wells of a XF24 microplate (Agilent Technologies, Santa Clara, Calif.). After acclimation for one hour at 37° C. in non-buffered assay media, metabolic activity of the EDM samples was quantified using a commercial kit (XF Cell Mito Stress Test Kits; Agilent Technologies) on a Seahorse XFe24 extracellular flux analyzer (Agilent Technologies). Following extracellular flux analysis, tissues were labeled fluorescently using a 1:1000 Sytox Green nucleic acid stain in the microtiter plate (Life Technologies, Grand Island, N.Y.) and imaged on an Olympus IX-81 inverted microscope (Olympus America, Center Valley, Pa.) using a FITC filter. Cell counts were determined using Image J (https://imagej.nih.gov/ij/download.html) and used to compute the oxygen consumption rate per cell (OCR; pmole/min/cell). Raw OCR values were used to calculate several different key parameters of metabolic function per manufacturer's directions (Agilent Technologies), as in Aldrich et al. (2017). The parameters and calculations used in this study were the main outcome measures, including basal respiration, ATP-associated oxygen consumption, proton [H^+] leak, maximal respiration, spare respiratory capacity, non-mitochondrial respiration, and coupling efficiency as described in Schneider et al. and Goldstein et al. (2018).
Mitochondrial Respiration Assay: 3 mm punches of central and peripheral endothelium-Descemet membrane complex (EDM) were secured to the bottom of cell culture microplate wells or CECs were grown directly onto microplate.

[3] = system: human donor corneal endothelial cells; assay: as above; details: 1 μM coQ10, tissues in storage
[4] = 10 μM CoQ10 (ubiquinol), 5 days in Optisol GS, vs diluent-treated mate cornea, 13 or 14 paired corneas
[5] = 10 μM ubiquinol vs diluent-treated mate cornea, 5 days, n = 13
[6] = 10 μM ubiquinol, 5 days in Optisol-GS, n = 13
[7] = Example 13: 10 μM ubiquinol, 5 days in Optisol-GS, N=13, vs controls
[8] = palmitate-BSA treated tissues (100 μM), 5 days, n = 7

ubiquinol
ROS inhibition with an increase in concentration ([1]; 10, 50, 100 μM ubiquinol or equivalent): does not result in any significant change in ROS inhibition
ROS levels (DHE fluorescence) with antimycin A (AM) ([1]; 24 h treatment, listed as Free ubiquinol): failed to decrease ROS levels after AM treatment
ROS levels (DHE fluorescence) with antimycin A (AM) ([1]; 24 h treatment, listed as free ubiquinol): unable to inhibit ROS
ROS levels (DHE fluorescence) without ROS induction by AM ([1]; 24 h treatment, no AM): decrease the ROS levels in the cells below the normal levels
non-mitochondrial respiration ([2]; 1 μM coQ10, among doses 0.5, 1, 5, 7.5 μM): largest increase in non-mitochondrial respiration
mitochondrial spare respiratory capacity ([2]; 1 μM coQ10, tissues in storage (compared with the 10 μM dose)): did not show a bolstering of mitochondrial spare respiratory capacity function
proton leak increased ([2]; 10 μM CoQ10 (ubiquinol), 5 days in Optisol GS at 4° C., vs diluent-treated mate cornea, 13 or 14 paired corneas): 34%
maximal respiration increased [2, 4]: 97%
spare respiratory capacity increased [2, 4]: 133%
ATP Production, Mean Difference: Ubiquinol-Control (95% CI) [2, 5]: −0.0001 (−0.0033, 0.0032)
Basal, Mean Ratio: Ubiquinol/Control (95% CI) [2, 5]: Ratio: 1.12 (0.88, 1.43)
Coupling Efficiency, Mean Difference: Ubiquinol-Control (95% CI) [2, 5]: −0.0655 (−0.1550, 0.0240)
Maximal Respiration, Mean Ratio: Ubiquinol/Control (95% CI) [2, 5]: Ratio: 1.93 (1.31, 2.85)
Non-mitochondrial Respiration, Median Difference: Ubiquinol-Control (95% CI) [2, 5]: 0.000013^# (−0.00255, 0.00123)
Proton Leak, Mean Ratio: Ubiquinol/Control (95% CI) [2, 5]: Ratio: 1.80 (1.01, 3.21)
Spare Respiratory Capacity, Mean Ratio: Ubiquinol/Control (95% CI) [2, 5]: Ratio: 2.74 (1.61, 4.66)
Coupling Efficiency, Mean (SD) [2, 6]: 0.5303 (0.1141)
ATP Production, Mean (SD) [2, 6]: 0.0116 (0.0049)
Maximal Respiration, Mean (SD) [2, 6]: 0.0998 (0.0799)
Non-mitochondrial Respiration, Median [IQR] [2, 6]: 0.00662
Proton Leak, Mean (SD) [2, 6]: 0.0091 (0.0049)
Spare Respiratory Capacity, Mean (SD) [2, 6]: 0.0781 (0.0734)
Basal, Mean (SD) ([2]; 10 μM ubiquinol, 5 days in Optisol-GS, n = 13 matched tissues): 0.0202 (0.0087)
maximal respiration increased [2, 7]: 93%
proton leak increased [2, 7]: 80%
spare respiratory capacity increased [2, 7]: 174%
Basal, Mean (SD) ([2]; palmitate-BSA treated tissues (100 μM), 5 days in Optisol-GS, n = 7 matched tissues): 0.0251 (0.0138)
Coupling Efficiency, Mean (SD) [2, 8]: 0.5376 (0.1891)
ATP Production, Mean (SD) [2, 8]: 0.0155 (0.0090)
Maximal Respiration, Mean (SD) [2, 8]: 0.1102 (0.0309)
Non-mitochondrial Respiration, Median [IQR] [2, 8]: 0.00809
Proton Leak, Mean (SD) [2, 8]: 0.0106 (0.0075)
Spare Respiratory Capacity, Mean (SD) [2, 8]: 0.0833 (0.0212)
oxygen consumption rate (OCR) of CEC ([2]; ubiquinol supplemented vs non-supplemented CEC (FIG. 1)): High OCR; also recorded: increased oxygen consumption rate
proton leak [3]: no increase in proton leak

— patent publication US20220249399A1, “COMPOSITION COMPRISING AN ANTI-OXIDANT TO PRESERVE CORNEAL TISSUE” (University of lowa Research Foundation, priority 2019, published 2022)
